# Where a name gives a salt, the structure may show the parent alone.
# Test system: P. falciparum TM4/8.2 (wild type)
# Assay: microbe, parasite or virus in culture
# Assay type: cell-based, Plasmodium falciparum
# Details: Plasmodium falciparum; in vitro, wild-type strain TM4/8.2; read-out: IC50 P. falciparum TM4/8.2 (WT)
# From the text: (§1) In Vitro Antimalarial Activites Against P. falciparum and Cytotoxicity Towards Mammalian Cells (Vero Cells)
row,Structure (SMILES),IC50 [µM]
1,"CCc1nc(N)nc(N)c1-c1ccc(Cl)cc1 [Pyrimethamine, pyrimethamine, reference compound]",0.058 ± 0.03

# Test system: P. falciparum V1/S (N51I + C59R + S108 + I164L)
# Assay: microbe, parasite or virus in culture
# Assay type: cell-based, Plasmodium falciparum
# Details: Plasmodium falciparum; in vitro, quadruple mutant strain V1/S; read-out: IC50 P. falciparum V1/S
# From the text: as §1
row,Structure (SMILES),IC50 [µM]
1,"CCc1nc(N)nc(N)c1-c1ccc(Cl)cc1 [Pyrimethamine, pyrimethamine, reference compound]",> 100

# Test system: not listed separately
# Assay: in vitro
# Details: African green monkey
# From the text: as §1
row,Structure (SMILES),IC50 [µM]
1,"CCc1nc(N)nc(N)c1-c1ccc(Cl)cc1 [Pyrimethamine, pyrimethamine, reference compound]",> 10

# Test system: not given
# Assay: not given
# Details: not given
row,Structure (SMILES),melting point [°C]
1,CCc1nc(N)nc(N)c1OCc1coc(-c2cccc(OCC(=O)OCc3ccccc3)c2)n1 (as salt: hydrochloride) (hydrate or solvate) [Compound 53],163.5 to 164.5
2,CCc1nc(N)nc(N)c1OCc1coc(-c2cccc(OCC(=O)O)c2)n1 (as salt: hydrochloride) (hydrate or solvate) [Compound 54],203 to 204
3,CCc1nc(N)nc(N)c1OCc1coc(-c2ccc(OCC(=O)OCc3ccccc3)cc2)n1 (as salt: hydrochloride) (hydrate or solvate) [Compound 56],191.5 to 192.5
4,CCc1nc(N)nc(N)c1OCc1coc(-c2ccc(OCC(=O)O)cc2)n1 (as salt: hydrochloride) (hydrate or solvate) [Compound 57],195.5 to 197.5
5,CCc1nc(N)nc(N)c1OCc1csc(-c2cccc(OCC(=O)OCc3ccccc3)c2)n1 (as salt: hydrochloride) (hydrate or solvate) [Compound 63],175 to 177
6,CCc1nc(N)nc(N)c1OCc1csc(-c2cccc(OCC(=O)O)c2)n1 (as salt: hydrochloride) (hydrate or solvate) [Compound 64],191 to 193
7,CCc1nc(N)nc(N)c1OCc1csc(-c2ccc(OCC(=O)OCc3ccccc3)cc2)n1 (as salt: hydrochloride) (hydrate or solvate) [Compound 72],178 to 180
8,CCc1nc(N)nc(N)c1OCc1csc(-c2ccc(OCC(=O)O)cc2)n1 (as salt: hydrochloride) (hydrate or solvate) [Compound 73],203.5 to 205.5
9,CCc1nc(N)nc(N)c1-c1cn(-c2ccccc2)nn1 (as salt: hydrochloride) [Compound 1],273.2 to 274.5
10,CCc1nc(N)nc(N)c1-c1cn(Cc2ccccc2)nn1 (as salt: hydrochloride) [Compound 3],255.5 to 256.5
11,CCc1nc(N)nc(N)c1-c1cn(Cc2ccc(C(=O)OC)cc2)nn1 (as salt: hydrochloride) [Compound 4],222 to 223
12,CCc1nc(N)nc(N)c1-c1cn(Cc2ccc(C(=O)O)cc2)nn1 (as salt: hydrochloride) [Compound 5],270 to 272
13,CCc1nc(N)nc(N)c1-c1cn(Cc2ccc(OC(=O)N(c3ccccc3)c3ccccc3)cc2)nn1 (as salt: hydrochloride) [Compound 6],138 to 139
14,CCc1nc(N)nc(N)c1-c1cn(CCc2ccccc2)nn1 (as salt: hydrochloride) [Compound 7],203 to 204.5
15,CCc1nc(N)nc(N)c1-c1cn(CCCc2ccccc2)nn1 (as salt: hydrochloride) [Compound 8],233 to 235
16,CCc1nc(N)nc(N)c1-c1cn(CCOc2ccc(Cl)cc2)nn1 (as salt: hydrochloride) [Compound 9],173.5 to 175
17,CCc1nc(N)nc(N)c1-c1cn(CCOc2ccc(C(=O)OC)cc2)nn1 (as salt: hydrochloride) [Compound 10],225 to 226
18,CCc1nc(N)nc(N)c1-c1cn(CCCOc2ccc(Cl)cc2)nn1 (as salt: hydrochloride) [Compound 11],222.5 to 223.5
19,CCc1nc(N)nc(N)c1-c1cn(CCCOc2ccc(C(=O)OC)cc2)nn1 (as salt: hydrochloride) [Compound 12],211 to 212
20,CCc1nc(N)nc(N)c1OCc1cn(-c2ccccc2)nn1 (as salt: hydrochloride) [Compound 13],212.5 to 213.5
21,CCc1nc(N)nc(N)c1OCc1cn(-c2cccc([N+](=O)[O-])c2)nn1 (as salt: hydrochloride) [Compound 14],236 to 237

row,Structure (SMILES),melting point [°C]
1,CCc1nc(N)nc(N)c1OCc1cn(-c2cccc(C(=O)OC)c2)nn1 (as salt: hydrochloride) [Compound 15],211 to 212
2,CCc1nc(N)nc(N)c1OCc1cn(-c2ccc([N+](=O)[O-])cc2)nn1 (as salt: hydrochloride) [Compound 17],209 to 210.5
3,CCc1nc(N)nc(N)c1OCc1cn(-c2ccc(C(=O)OC)cc2)nn1 (as salt: hydrochloride) [Compound 18],197.5 to 199
4,CCc1nc(N)nc(N)c1OCc1cn(-c2ccc(C(=O)O)cc2)nn1 (as salt: hydrochloride) [Compound 19],270.8 to 272
5,CCc1nc(N)nc(N)c1OCCc1cn(-c2cccc(C(=O)O)c2)nn1 (as salt: hydrochloride) [Compound 20],246 to 247
6,CCc1nc(N)nc(N)c1OCCc1cn(-c2ccc(C(=O)OC)cc2)nn1 (as salt: hydrochloride) [Compound 21],190 to 192
7,CCc1nc(N)nc(N)c1OCCc1cn(-c2ccc(C(=O)O)cc2)nn1 (as salt: hydrochloride) [Compound 22],270 to 271
8,CCc1nc(N)nc(N)c1OCCCc1cn(-c2cccc(C(=O)O)c2)nn1 (as salt: hydrochloride) [Compound 23],230.5 to 231.5
9,CCc1nc(N)nc(N)c1OCCCc1cn(-c2ccc(C(=O)OC)cc2)nn1 (as salt: hydrochloride) [Compound 24],208 to 209.5
10,CCc1nc(N)nc(N)c1OCCCc1cn(-c2ccc(C(=O)O)cc2)nn1 (as salt: hydrochloride) [Compound 25],239.5 to 241.5
11,CCc1nc(N)nc(N)c1OCc1cn(Cc2cccc(C(=O)O)c2)nn1 (as salt: hydrochloride) [Compound 26],170 to 171
12,CCc1nc(N)nc(N)c1OCc1cn(Cc2cc(F)c(O)c(F)c2)nn1 (as salt: hydrochloride) [Compound 27],224.7 to 226
13,CCc1nc(N)nc(N)c1OCc1cn(Cc2ccc(O)cc2)nn1 (as salt: hydrochloride) [Compound 28],224.2 to 225.2
14,CCc1nc(N)nc(N)c1OCc1cn(Cc2ccc(C(=O)O)cc2)nn1 (as salt: hydrochloride) [Compound 29],223.8 to 224.8
15,CCc1nc(N)nc(N)c1OCCc1cn(Cc2ccc(O)cc2)nn1 (as salt: hydrochloride) [Compound 30],213 to 215
16,CCc1nc(N)nc(N)c1OCCCc1cn(Cc2ccc(C(=O)O)cc2)nn1 (as salt: hydrochloride) [Compound 32],211 to 212.5
17,CCc1nc(N)nc(N)c1OCc1cc(-c2ccccc2)no1 (as salt: hydrochloride) [Compound 33],221.5 to 222.5
18,CCc1nc(N)nc(N)c1OCc1cc(-c2ccc(F)cc2)no1 (as salt: hydrochloride) [Compound 34],231 to 232
19,CCc1nc(N)nc(N)c1OCc1cc(-c2ccc(Cl)cc2)no1 (as salt: hydrochloride) [Compound 35],230 to 231.5
20,CCc1nc(N)nc(N)c1OCc1cc(-c2ccc(Br)cc2)no1 (as salt: hydrochloride) [Compound 36],238 to 239.5
21,CCc1nc(N)nc(N)c1OCc1cc(-c2cccc(C(F)(F)F)c2)no1 (as salt: hydrochloride) [Compound 37],224 to 225.5

# From patent US11028072B2, “2,4-diamino-6-ethylpyrimidine derivatives with antimalarial activities against Plasmodium falciparum” (National Science and Technology Development Agency, priority 2015, dated 2021)
